“Also recorded” adds a separate entry of the source.
What was measured:
[1] = system: chicken CaSR; assay: CaSR dependent ERK 1/2 phosphorylation (Western blot) in HEK cells transfected with chicken CaSR; format: cell-based; conditions: various concentrations of bacitracin Zn
Method: HEK cells transfected with the chicken CaSR were cultured under standard conditions (DMEM with 10% FCS). Confluent flasks were serum-starved overnight in DMEM supplemented with 0.2% BSA and pre-incubated for 60 min at 37° C. in the following medium: 125 mM NaCl, 4 mM KCl, 20 mM Hepes, 0.1% glucose, 0.8 mM NaH2PO4, 1 mM MgCl2, 0.1% BSA, 0.5 mM CaCl2, pH 7.45. The cells were then incubated in the same medium without BSA in the presence of different mineral chelates at different concentrations (see below) for 15 min at 37° C. At the end of the incubation treatment media was removed and cells were washed with PBS and than lysed in 250 microliter of M-PER lysis buffer (Pierce Chemical Company, Rockford, Ill.) containing 10 ul/ml of protease inhibitors (Pierce Chemical Company, Rockford, Ill.). Cell lysates were centrifuged for 10 min at 4° C. at 14,000×g. The protein content in the supernatants was analyzed using the BCA Protein Assay system from Pierce Chemical Company, Rockford, Ill. Equal amounts of protein (20 ug) were combined with 4× loading buffer and […] DTT, heated to 95° C., separated by SDS gel electrophoresis and electrotransferred to PVD membranes. The membranes were incubated in 1% BSA in TBS-T (TRIS-buffered saline containing Tween 20 at 0.1%) overnight. After 4 washes in TBS-T the membranes were incubated with primary antibody (anti phosphoERK at 1:400 dilution; this antibody recognizes the phosphorylated form of ERK 1/2) for 1.5 hours at room temperatures, washed 4 times and incubated with secondary antibody (anti mouse at 1:50,000 dilution). After 4 washes in TBS-T the membranes were developed using the ECL Western Blotting system.
The experiments described in FIGS. 34 A and B used the following metal chelate treatments: ZnProteinate, CuProteinate and MnProteinate (Balchem Corporation, New Hampton, N.Y.) at the following concentrations: 0.025% and 2.5%, or at a concentration of 0.025% with 1 micromolar MC 0100 (a calcimimetic); or various concentrations of bacitracin Zn.

[2] = biological target: T1, mammalian CaSR (Homo sapiens, UniProt P41180); assay: FURA2 ratio imaging fluorimetry of HEK cells stably expressing mammalian CaSR; format: cell-based
T1 construct: expressed in transfected cells; host or cells: HEK cells stably expressing the mammalian CaSR
T1 sequence (P41180 20-1078): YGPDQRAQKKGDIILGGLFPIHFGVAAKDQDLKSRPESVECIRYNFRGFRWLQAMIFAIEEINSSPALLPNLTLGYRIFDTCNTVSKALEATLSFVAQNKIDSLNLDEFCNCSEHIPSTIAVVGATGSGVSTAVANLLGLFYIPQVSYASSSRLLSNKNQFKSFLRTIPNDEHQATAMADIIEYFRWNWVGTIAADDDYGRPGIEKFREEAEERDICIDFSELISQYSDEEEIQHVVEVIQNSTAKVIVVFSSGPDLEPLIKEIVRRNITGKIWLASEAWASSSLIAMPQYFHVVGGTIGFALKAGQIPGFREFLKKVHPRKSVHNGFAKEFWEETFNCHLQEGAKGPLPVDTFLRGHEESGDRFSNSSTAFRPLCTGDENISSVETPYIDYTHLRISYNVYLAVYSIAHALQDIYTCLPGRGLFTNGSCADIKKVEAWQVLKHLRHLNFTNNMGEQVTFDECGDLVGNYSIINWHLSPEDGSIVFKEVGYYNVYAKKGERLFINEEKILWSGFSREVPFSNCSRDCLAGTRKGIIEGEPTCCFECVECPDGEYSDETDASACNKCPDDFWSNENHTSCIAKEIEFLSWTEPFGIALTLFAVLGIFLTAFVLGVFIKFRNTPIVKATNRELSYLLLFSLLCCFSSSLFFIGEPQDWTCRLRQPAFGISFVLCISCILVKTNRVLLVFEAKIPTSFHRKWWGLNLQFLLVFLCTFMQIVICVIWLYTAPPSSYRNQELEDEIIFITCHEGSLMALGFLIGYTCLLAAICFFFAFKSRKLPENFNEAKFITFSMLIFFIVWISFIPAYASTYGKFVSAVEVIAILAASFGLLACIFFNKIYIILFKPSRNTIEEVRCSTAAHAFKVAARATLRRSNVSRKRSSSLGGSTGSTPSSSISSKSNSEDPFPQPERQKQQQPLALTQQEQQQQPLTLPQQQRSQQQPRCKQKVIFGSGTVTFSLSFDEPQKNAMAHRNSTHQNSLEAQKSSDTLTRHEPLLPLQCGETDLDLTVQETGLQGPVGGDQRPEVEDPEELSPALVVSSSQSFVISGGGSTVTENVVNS
Text: (§1) All methods and equipment utilized to perform experiments on HEK cells have been reported previously (Gama, L. and Breitwieser, G. E. 1998. A carboxyl-terminal domain controls the cooperativity for extracellular Ca2+ activation of the human calcium sensing receptor. A study with receptor-green fluorescent protein fusions. J. Biol. Chem. 273, 29712-29718; Bai, M., Quinn, S., Trivedi, S., Kifor, 0., Pearce, S. H., Pollak, M. R., Krapcho, K., Hebert, S. C. and Brown, E. M. 1996. Expression and characterization of inactivating and activating mutations in the human Ca2+o-sensing receptor. J. Biol. Chem. 271, 19537-19544). Untransfected HEK cells or, alternatively, cells transfected and expressing CaSR protein were cultured in Dulbecco's Modified Eagle Medium containing 10% fetal bovine serum and 1% penicillin-streptomycin in 75 cm^2 flasks until they reached confluence. Media was removed from the flasks and cells were loaded by exposure to Loading Buffer (125 mM NaCl, 4 mM KCl, 1.0 mMCaCl2, 1.0 mM MgCl2, 1 mM NaH2PO4, 20 mM HEPES, 1 gm/liter bovine serum albumin, and 1 gm/l glucose, pH ˜7.4, osmolality ˜285) containing 4.1 micromolar FURA2-AM (Molecular Probes Inc. Eugene, Oreg.) for 2 hr. Cells were then scraped from the surface of the flask using a standard cell scraper (Costar 3010, Corning Inc.). Cells were then pelleted from the suspension by low speed centrifugation to remove loading buffer and rinsed twice to remove extracellular FURA2 dye by two sequential suspensions and pelleting steps using low speed centrifugation. Immediately prior to the start of the experiment, cells were resuspended in various experimental buffers for analyses as described below. The Standard Experimental Buffer used for many studies was composed of: 125 mM NaCl, 4 mM KCl, 0.5 mMCaCl2, 0.5 mM MgCl2, 20 mM HEPES, 1 g/l glucose, pH ˜7.4, osmolality ˜285. All other buffers were variations on this basic composition where specific components within the Standard Experimental Buffer were varied while the remaining components were held constant.
(§2) Cell suspensions consisting of a total volume of 3 ml were analyzed in a PTI fluorimeter (PTI Model 814 Photomultiplier Detection System equipped with SC-500 Shutter Controller and PTI Driver and Analysis Software) within approximately 20 min after exposure to experimental buffers. Data was acquired using standard ratio image analysis as described previously using a data acquisition rate of 1.3 sec. for 500 or 1000 second intervals.
(§3) In selected experiments, the detergent Triton X-100 was added in order to lyse the cells and quantify differences in FURA2 ratio fluorescence. Triton X-100 was added to the cells to obtain a maximal fluorescence signal from the FURA2 for purposes of quantification.
Experiments on HEK cells were performed generally as described in Example 6 herein. […] Subsequent addition of Ca2+ to a final concentration of 5 mM produced an additional response (see FIG. 26A). No response was observed upon addition of 0.025% Mintrex Zn after the addition of experimental buffer (EB) (see FIG. 26B). […] In addition, the magnitude of the CaSR response to 5 mM Ca2+ was diminished by previous addition of Mintrex Zn.
For mammalian CaSR experiments, two individual aliquots from a single pool of HEK cells that stably express the recombinant mammalian CaSR protein were used for ratio imaging fluorimetry assays of CaSR activation generally as described in Example 6 herein. Addition of Ca++ to a final concentration of 2.5 mM produced a CaSR response that was also followed by responses after subsequent additions of 0.025% Zn proteinate followed by Ca++ to a final concentration of 7.5 mM (FIG. 29B). […] There was also a response to a subsequent dose of Ca++ to a final concentration of 7.5 mM (FIG. 29B). In both tracings, the detergent Triton X-100 was added as a final step to lyse the cells.
Experiments on HEK cells were performed generally as described in Example 6 herein. […]

[3] = system: avian CaSR; assay: FURA2 ratio imaging fluorimetry of HEK cells stably expressing avian (chicken) CaSR; format: cell-based
Text: as §1, §2, §3
The ability of the CaSR modulator MC0100 to potentiate the response of avian and mammalian CaSRs to the chelated mineral amino acid complex, ZnPro, was tested. For avian CaSR experiments, three individual aliquots from a single pool of HEK cells that stably express the recombinant avian CaSR protein were used for ratio imaging fluorimetry assays of CaSR activation generally as described in Example 6 herein. […] In all aliquots, the detergent Triton X-100 was added as the last addition to lyse the cells (FIG. 29A).
From a single pool of HEK cells stably expressing the avian CaSR, aliquots of cells were removed and analyzed using ratio imaging fluorimetry generally as described in Example 6 herein. After a standard addition of Ca++ to a final concentration of 2.5 mM, either 0.0025%, 0.025% or 0.25% Zinc Proteinate was added followed by a second addition of Ca++ to a final concentration of 7.5 mM. Subsequently, an aliquot of the detergent Triton X-100 was added to lyse the cells. […] The magnitude of the subsequent CaSR response to Ca++ was reduced via increasing Zn Proteinate stimulation.
Fluorimetry analysis was performed on HEK cells expressing the recombinant chicken CaSR protein generally as described in Example 6 herein.

[4] = biological target: T2, recombinant human CaSR protein (Homo sapiens, UniProt P41180); assay: FURA2 ratio fluorimetry of HEK cells expressing recombinant human CaSR; format: cell-based
T2 construct: expressed in transfected cells; host or cells: HEK cells
T2 sequence (P41180 20-1078): T1 sequence (P41180 20-1078)
Text: as §1, §2, §3

[5] = biological target: recombinant CaSR protein (Homo sapiens, UniProt P41180); conditions: concentrations of spermine and calcium present in sow's milk (FIG. 20C); cited from earlier work
[6] = system: chick jejunal CaSR; assay: phospho-ERK immunoblot of HEK cells transfected with chick jejunal CaSR cDNA after increase in extracellular Ca2+; format: cell-based, chicken; conditions: extracellular Ca2+ increased 0.5 mM to 10 mM
Method: HEK-293 cells were plated into 6-well plates so that the cells were 90% confluent at the time of transfection. The linearized and non-linearized plasmids were ethanol precipitated and quantified spectrophotometrically. A ratio of DNA to lipofectamine of 1:3.5 (4 μg of DNA and 14 μl Lipofectamine 2000) was used for the transfection procedure. To provide a negative control, only Lipofectamine was added to some HEK cells. After exposure to lipofectamine, hygromycin B (400 μg/ml) was used to select for HEK cells that had been transfected since the plasmid containing the putative CaSR sequence also contained a hygromycin resistance element.
At the start of hygromycin selection, flasks were about 40% confluent. All flasks experienced a high percentage of die off cells. After an interval of 10 days, all the cells in the negative control flasks were dead. […] Linear flask 1 and non-linear flask 1 were trypsinized by addition of 200 μl trypsin to redistribute dense colonies and prevent overcrowding 10 days after the start of hygromycin selection. New complete media was added containing 400 μg/ml hygromycin. At day 14, flasks had multiple colonies that were well spread out and were beginning to look overcrowded. Each flask was trypsinized, centrifuged and re-plated in a new flask, still under hygromycin selection. At day 17, transfected HEK cells were 60% confluent. […]

Sequence of chicken CaSR (as listed by the source): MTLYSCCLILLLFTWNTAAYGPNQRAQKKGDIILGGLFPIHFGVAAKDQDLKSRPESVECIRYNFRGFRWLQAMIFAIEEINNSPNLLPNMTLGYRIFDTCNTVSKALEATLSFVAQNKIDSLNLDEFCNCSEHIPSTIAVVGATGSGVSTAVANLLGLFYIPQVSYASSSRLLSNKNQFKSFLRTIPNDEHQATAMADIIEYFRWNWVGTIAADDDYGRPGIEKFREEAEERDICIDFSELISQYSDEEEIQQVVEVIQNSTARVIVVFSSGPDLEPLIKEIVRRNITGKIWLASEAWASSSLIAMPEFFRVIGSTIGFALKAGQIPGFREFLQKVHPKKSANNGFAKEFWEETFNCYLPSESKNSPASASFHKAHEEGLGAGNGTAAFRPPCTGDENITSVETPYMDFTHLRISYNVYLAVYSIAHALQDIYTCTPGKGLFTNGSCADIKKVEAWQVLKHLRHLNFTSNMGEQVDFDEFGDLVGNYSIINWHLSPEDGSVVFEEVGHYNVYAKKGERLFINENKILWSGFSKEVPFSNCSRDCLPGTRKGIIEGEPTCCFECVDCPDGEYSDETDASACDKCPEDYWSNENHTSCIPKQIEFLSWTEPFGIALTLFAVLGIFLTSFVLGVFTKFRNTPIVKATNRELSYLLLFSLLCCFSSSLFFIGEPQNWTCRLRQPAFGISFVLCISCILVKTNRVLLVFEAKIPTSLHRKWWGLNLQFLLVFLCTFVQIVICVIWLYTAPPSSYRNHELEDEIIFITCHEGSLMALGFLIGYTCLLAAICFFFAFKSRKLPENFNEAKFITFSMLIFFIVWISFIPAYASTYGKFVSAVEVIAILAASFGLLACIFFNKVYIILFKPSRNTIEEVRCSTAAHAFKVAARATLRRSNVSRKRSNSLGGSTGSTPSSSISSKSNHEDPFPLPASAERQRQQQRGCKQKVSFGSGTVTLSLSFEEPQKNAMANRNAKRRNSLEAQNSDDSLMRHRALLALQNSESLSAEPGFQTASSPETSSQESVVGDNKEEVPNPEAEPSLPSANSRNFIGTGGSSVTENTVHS

bacitracin Zn
ERK1/2 phosphorylation as compared to Ca++ with MC0100 [1]: increase in ERK1/2 phosphorylation

N[C@@H](Cc1ccccc1)C(=O)O [L-Phenylalanine]
effect on Mintrex Zn inhibition of CaSR response to Ca++ stimulus ([2]; 3 mM L-Phe after 0.025% Mintrex Zn, 1.5 mM Ca++, Ca++ to 5 mM): reversed Mintrex-Zn's inhibition
effect on Mintrex Zn inhibition of CaSR response to Ca++ stimulus ([3]; 3 mM L-Phe after 0.25% Mintrex Zn, Ca++ to 7.5 mM): reversed Mintrex-Zn's inhibition

bovine serum albumin: a protein that also binds calcium
activation of recombinant human CaSR (intracellular calcium) [4]: has no effect

Casein
activation of recombinant human CaSR (intracellular calcium) [4]: acts as an agonist

CC(C)(Cc1ccc2ccccc2c1)NC[C@@H](O)COc1cccc(Cl)c1C#N [MC106]
effect on CaSR response to 2.5 mM Ca2+ ([2]; 1 micromolar MC106 added first): eliminated
effect on subsequent CaSR response to 5 mM Ca2+ ([2]; 1 micromolar MC106 added first): reduced
CaSR response to the modulator itself ([2]; 1 micromolar MC106 in DMSO): did not itself produce a CaSR response; also recorded: did not elicit a CaSR response
effect on CaSR responses to 0.25% Mintrex Zn or 5.5 mM Ca2+ ([2]; initial addition of 1 micromolar MC106): reduced or eliminated responses
effect of modulator on CaSR stimulation by Mintrex Zn ([2]; pre-addition of MC106 (FIG. 30D)): suppress the stimulation
effect of prior modulator on CaSR response to Zn Proteinate ([3]; 1 micromolar MC106, 0.25% Zinc Proteinate): reduced the avian CaSR's response

NCCCNCCCCNCCCN [spermine]
activation of recombinant CaSR [5]: activated

NCCCN [diaminopropane]
activation of recombinant human CaSR (intracellular calcium) [4]: sharp increase in intracellular calcium

[Ca+2] [Ca2+]
activation of the ERK kinase pathway (phospho-ERK) [6]: selective activation

N=C(N)NCCC[C@H](N)C(=O)O.NCC(=O)O.NCC(=O)O [gly-gly-arg, glycine-glycine-arginine]
activation of recombinant human CaSR (intracellular calcium) [4]: significant activation
